Experiment: gradient 5% acetonitrile 3 min, to 50% in 2 min, to 85% in 15 min, held 3 min, 100 µL/min
Details: column: Zorbax Extend-C18 2.1 x 50 mm; eluents: water / acetonitrile, 0.1% formic acid
Method in brief: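 Values are retention times taken from adduct peaks that software picked and an analyst inspected. The pure standards were run as mixtures of ~100 molecules on HPLC linked to a quadrupole time-of-flight mass spectrometer, in positive and negative ionization mode. A Zorbax Extend-C18 column (2.1 × 50 mm, 1.8 μm) was used at 100 μL/min with water and acetonitrile, each including 0.1% formic acid.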

| SMILES | RP-LC retention time [s] |
| --- | --- |
| CC1(C(=O)NC2CCCCCC2)CN(S(C)(=O)=O)CC(=O)N1c1cccc(F)c1 (stereo not drawn) | 835 |
| CCc1nc2onc(C)c2c(=O)n1CC(=O)NCCC1=CCCCC1 | 899 |
| COc1ccc(N2CC(c3noc(-c4ccc(Cl)cc4)n3)CC2=O)cc1OC (stereo not drawn) | 956 |
| CC1CCCN(c2nn(CC(=O)Nc3ccccc3Cl)c(=O)c3ccccc23)C1 (stereo not drawn) | 1180 |
| COc1ccc(Cl)cc1C(=O)N1CCN(c2cc(C)nc(N3CCOCC3)n2)CC1 | 644 |
| Cc1csc(-c2cc(S(=O)(=O)N(C)Cc3ccco3)c(C)n2C)n1 | 1000 |
| CNC(=O)Nc1cc(C)n(Cc2ccccc2)n1 | 738 |
| Cc1nc2cccnc2n1C1CCN(C(=O)C2CCCCC2)C1 (stereo not drawn) | 591 |
| CCc1ccc(-c2csc(NC(=O)C3CCCO3)n2)cc1 (stereo not drawn) | 1020 |
| O=C(NCc1cccc(F)c1)c1ccc(-c2cccs2)nc1 | 894 |
| Cc1nn(CC(=O)N2CCC(N3CCCCC3)CC2)c(=O)c2nn(-c3ccccc3)c(C)c12 | 605 |
| Cc1ccc(NC(=O)Cn2nc3c(Oc4cccc(F)c4)nccn3c2=O)cc1 | 880 |
| Cc1ccc(Nc2c(-c3ccccc3O)nc3ccccn23)cc1 | 739 |
| CCC(=O)N1CCc2c(C(=O)N3CCN(c4ccccc4)CC3)cccc21 | 829 |
| CCN(C(=O)C1CCCN1S(=O)(=O)c1cc2c(cc1C)NC(=O)CO2)c1ccc(OC)cc1 (stereo not drawn) | 782 |
| Cc1nn(CCCC(=O)N2CCOCC2)c(=O)c2nn(-c3ccccc3)c(C)c12 | 673 |
| C=CC(=O)N1C/C(=C\c2ccccc2)C(=O)/C(=C/c2ccccc2)C1 | 930 |
| Cc1ccc(-c2nnc(-c3cccc(S(=O)(=O)N4CCCC4)c3)o2)cc1 | 1010 |
| CCc1ccccc1NC(=O)N1CCCC(Cn2cnc3cccnc32)C1 (stereo not drawn) | 719 |

| SMILES | RP-LC retention time [s] |
| --- | --- |
| O=C(CN1CC=C(c2cnn(-c3ccc(F)cc3)c2)CC1)N1CCN(c2ccccn2)CC1 | 566 |
| O=C(NC1CCCC1)C1CCCN(c2ccc(=O)n(-c3cccc(F)c3)n2)C1 (stereo not drawn) | 784 |
| O=C1Nc2cc(C(=O)N3CCC(N4CCCCC4)CC3)ccc2N2CCCCC12 (stereo not drawn) | 581 |
| CC(=O)Nc1ccc(C2(C(=O)NCc3ccc4c(c3)OCO4)CCC2)cc1 | 730 |
| Cc1ccc(CN2C[C@@H]3C(=O)N(CCc4ccccc4)C(=O)[C@@H]3C2)cc1 | 760 |
| CC(C)CN1CCN(S(=O)(=O)c2cc(-c3nnc(C4CCCC4)o3)co2)CC1 | 678 |
| O=C(c1ccc2ncnc(N3CCCCC3)c2c1)N1CCCCC1 | 636 |
| O=C(c1cnc2ccccc2n1)N1CCN(Cc2ccsc2)CC1 | 556 |
| CCc1ccc(N2CC(c3noc(-c4ccc(OC)c(OC)c4)n3)CC2=O)cc1 (stereo not drawn) | 925 |
| CCCNC(=O)c1csc(C(=O)NCC)n1 | 670 |
| CNC(=O)Cc1csc(NC(=O)CN(C)c2nc3ccccc3s2)n1 | 624 |
| CCc1nc2cc(-c3noc(/C=C/c4ccco4)n3)ccc2o1 | 1090 |
| O=C1CCCc2cc(S(=O)(=O)N3CCN(c4cccc(C(F)(F)F)c4)CC3)ccc2N1 | 980 |
| Cc1ccc(C)c(NC(=O)NCCn2c(-c3ccncc3)nc3cccnc32)c1 | 638 |
| COCCn1c(C)c(C)c(S(=O)(=O)c2ccc(C)cc2)c1NC(=O)C1CCCO1 (stereo not drawn) | 859 |
| CCCCOC(=O)c1ccc(NC(=O)c2c(O)c3cccc4c3n(c2=O)CC4)cc1 | 1070 |
| O=C(c1cc2ccccc2[nH]1)N1CCC(c2noc(C3CC3)n2)C1 (stereo not drawn) | 1440 |
| CCCCNC(=O)CSc1nnc2c3cc(-c4ccccc4)nn3ccn12 | 780 |

The next lines start with the values.

| RP-LC retention time [s] | SMILES |
| --- | --- |
| 999 | Cc1ccc(Cl)cc1N1CCN(C(=O)CCc2nnc3c4cc(-c5ccccc5)nn4ccn23)CC1 |
| 617 | CC(C)NC(=O)CCC(=O)N1CCc2c(c(C(=O)N3CCCCC3)nn2C)C1 |
| 668 | Cc1nnc2c(=O)n(CC(=O)NC3CCCCC3)c3cccnc3n12 |
| 957 | CC(=O)N1c2ccc(S(=O)(=O)N3CCCCCC3)cc2CC1C(=O)NCCc1ccc(C)cc1 (stereo not drawn) |
| 863 | Cc1cc(C)cc(N2CCC(NC(=O)c3cccc(C#N)c3)C2=O)c1 (stereo not drawn) |
| 1130 | O=C(NCc1ccc(N2CCCC2)cc1)c1sc2ncccc2c1-n1cccc1 |
| 790 | CC1CCN(C(=O)c2ccc(CN3C(=O)C4CCCN4C(=O)c4ccccc43)cc2)CC1 (stereo not drawn) |
| 863 | COCCNC(=O)c1csc(N2CCN(c3ccccc3)CC2)n1 |
| 780 | O=C1NCCCCCCN(C(=O)Nc2ccc(F)cc2)[C@H]2CCC[C@@H]12 |
| 598 | CC(=O)c1cccc(NC(=O)Cn2cncc(C)c2=O)c1 |
| 732 | Cc1ncc([N+](=O)[O-])n1CCOC(=O)c1ccc(F)cc1 |
| 853 | CCCCNC(=O)c1cnn(-c2ccc(-c3nc(C)no3)cn2)c1C |
| 713 | Cc1nn2c(=O)cc(CSc3nnc(-c4ccc5c(c4)OCO5)o3)nc2s1 |
| 1020 | CCOc1ccc(CCNc2nc(-c3ccc(OC)cc3)no2)cc1OCC |
| 616 | C=CCn1c(SCC(=O)N2CCC(C(N)=O)CC2)nnc1-c1sc2ncccc2c1N |
| 993 | COCCN1CCCc2ccc(NC(=O)c3cccc(Br)c3)cc21 |

| RP-LC retention time [s] | SMILES |
| --- | --- |
| 742 | Cc1nn(-c2ccc(F)cc2)c(C)c1S(=O)(=O)N1CCC(C(=O)NCC2CCCO2)CC1 (stereo not drawn) |
| 603 | Cc1ccc2cc(CN3CCC4(CC3)CC(C)(O)CCO4)c(=O)[nH]c2c1 (stereo not drawn) |
| 858 | COC(=O)c1cn(NC(=O)c2cc(-c3ccco3)nc3ccccc23)c(=O)c2ccccc12 |
| 764 | Cc1nn(-c2ccc(F)cc2)c(C)c1S(=O)(=O)N1CCC(C(=O)NC2CC2)CC1 |
| 621 | Cc1cc(NC(=O)C2CCN(C(=O)c3cccc(-n4cnnn4)c3)CC2)no1 |
| 1230 | CCCN1C(=O)COc2ccc(-c3noc(-c4ccccc4C(F)(F)F)n3)cc21 |
| 809 | Cc1ccc(S(=O)(=O)N2CCn3c(nn(CC4CC4)c3=O)C2)c(C)c1 |
| 662 | Cc1cc(N2CCCC2)n2nc(CN3CCN(c4ccccc4Cl)CC3)nc2n1 |
| 643 | CCCNC(=O)COc1ccc(NC(=O)C2CC2)cn1 |
| 1150 | CCCc1nc(-c2ccccc2)oc1CC(=O)Nc1ccc(Br)cc1F |
| 845 | COc1ccccc1-c1noc(C2CCCN2C(=O)c2ccc3c(c2)OCO3)n1 (stereo not drawn) |
| 742 | CCn1cnc2ccc(-c3noc(COc4ccccc4)n3)cc21 |
| 724 | CCCNc1c(C(=O)OC)c(=O)[nH]c2c(Cl)cccc12 |
| 996 | CS(=O)(=O)N1CCC(C(=O)Nc2cccc(Br)c2)Oc2ccccc21 (stereo not drawn) |
| 729 | Cc1c(C2CCN(C(=O)c3cc4ccccc4[nH]3)CC2)noc1N |
